# Experiment: Carotenoid content in fish flesh of silver salmon by HPLC
# Assay type: in vivo, Oncorhynchus kisutch
# Conditions: Fermented product division, silver salmon fish flesh, 6 months
# Method: In the examples, the quantification of the carotenoid colorant was performed using high performance liquid chromatography (HPLC). Two columns of Wakosil-II 5 SIL-100 φ4.6×250 mm (produced by Wako Pure Chemical Industries, Ltd.) were connected to each other. An n-hexane:tetrahydrofuran:methanol (40:20:1) mixed solution was used as a mobile phase. A constant room temperature and a flow rate of 1.0 ml/min were used. The detection was performed at a wavelength of 470 nm. The feed or fish flesh was milled, and then the colorant was extracted with a tetrahydrofuran:methanol (20:1) mixed solution. The colorant was appropriately diluted with the mobile phase and analyzed by HPLC. 300 silver salmons (Oncorhynchus kisutch) each weighing about 200 g were cultivated as a test division of being fed with the above-described fermented product, and another 300 silver salmons each weighing about 200 g were cultivated as a test division of being fed with the above-described synthetic product. The salmons were fed in satiation in a marine fish pen for 6 months. After the 6 months of cultivating, 10 fish of each test division were weighed. […] The fish were immediately killed by cutting medulla and frozen for preservation. After being thawed, the fish flesh was milled by a coffee mill, and a part thereof was put into a polyethylene bag to measure the color tone thereof by a spectrometer CM-508i (Minolta). […] From a part of the milled fish flesh, the carotenoid colorant was extracted, and analyzed in terms of the content of each carotenoid compound by HPLC.
row,Compound,Ratio to astaxanthin
1,CC1=C(/C=C/C(C)=C/C=C/C(C)=C/C=C/C=C(C)/C=C/C=C(C)/C=C/C2=C(C)C(=O)[C@@H](O)CC2(C)C)C(C)(C)CCC1 [3-hydroxyequinenone],0.2 or less %
2,CC1=C(/C=C/C(C)=C/C=C/C(C)=C/C=C/C=C(C)/C=C/C=C(C)/C=C/C2=C(C)C(=O)CCC2(C)C)C(C)(C)CCC1 [Equinenone],0.2 or less %

# Same assay, conditions: Fermented product division, silver salmon, 6 months, average of 10 fish
row,Compound,Content in fish flesh
1,CC1=C(/C=C/C(C)=C/C=C/C(C)=C/C=C/C=C(C)/C=C/C=C(C)/C=C/C2=C(C)C(=O)[C@@H](O)CC2(C)C)C(C)(C)CCC1 [3-hydroxyequinenone],0.02 or less mg/kg
2,CC1=C(/C=C/C(C)=C/C=C/C(C)=C/C=C/C=C(C)/C=C/C=C(C)/C=C/C2=C(C)C(=O)CCC2(C)C)C(C)(C)CCC1 [Equinenone],0.02 or less mg/kg

# Same assay, conditions: Synthetic product division, silver salmon, 6 months, average of 10 fish
row,Compound,Content in fish flesh
1,CC1=C(/C=C/C(C)=C/C=C/C(C)=C/C=C/C=C(C)/C=C/C=C(C)/C=C/C2=C(C)C(=O)[C@@H](O)CC2(C)C)C(C)(C)CCC1 [3-hydroxyequinenone],0.02 or less mg/kg
2,CC1=C(/C=C/C(C)=C/C=C/C(C)=C/C=C/C=C(C)/C=C/C=C(C)/C=C/C2=C(C)C(=O)CCC2(C)C)C(C)(C)CCC1 [Equinenone],0.02 or less mg/kg

# Experiment: Carotenoid content in fish flesh of rainbow trout by HPLC
# Assay type: in vivo, Oncorhynchus mykiss
# Conditions: Fermented product division, rainbow trout fish flesh, 3 months
# Method: In the examples, the quantification of the carotenoid colorant was performed using high performance liquid chromatography (HPLC). Two columns of Wakosil-II 5 SIL-100 φ4.6×250 mm (produced by Wako Pure Chemical Industries, Ltd.) were connected to each other. An n-hexane:tetrahydrofuran:methanol (40:20:1) mixed solution was used as a mobile phase. A constant room temperature and a flow rate of 1.0 ml/min were used. The detection was performed at a wavelength of 470 nm. The feed or fish flesh was milled, and then the colorant was extracted with a tetrahydrofuran:methanol (20:1) mixed solution. The colorant was appropriately diluted with the mobile phase and analyzed by HPLC. 50 rainbow trouts (Oncorhynchus mykiss) each weighing about 100 g were cultivated in a water tank as a test division of being fed with the above-described fermented product, and another 50 rainbow trouts each weighing about 100 g were cultivated in a water tank as a test division of being fed with the above-described synthetic product. The trouts of each test division were fed in satiation in fresh water for 3 months. After the 3 months of cultivating, 12 fish of each test division were weighed. […] The fish were immediately killed by cutting medulla. […] After the measurement, the fish flesh was frozen for preservation. After being thawed, the fish flesh of the 12 fish of each test division was analyzed in terms of the content of each carotenoid compound.
row,Compound,Ratio to astaxanthin
1,CC1=C(/C=C/C(C)=C/C=C/C(C)=C/C=C/C=C(C)/C=C/C=C(C)/C=C/C2=C(C)C(=O)[C@@H](O)CC2(C)C)C(C)(C)CCC1 [3-hydroxyequinenone],0.6 or less %
2,CC1=C(/C=C/C(C)=C/C=C/C(C)=C/C=C/C=C(C)/C=C/C=C(C)/C=C/C2=C(C)C(=O)CCC2(C)C)C(C)(C)CCC1 [Equinenone],0.6 or less %

# Same assay, conditions: Fermented product division, rainbow trout, 3 months, average of 12 fish
row,Compound,Content in fish flesh
1,CC1=C(/C=C/C(C)=C/C=C/C(C)=C/C=C/C=C(C)/C=C/C=C(C)/C=C/C2=C(C)C(=O)[C@@H](O)CC2(C)C)C(C)(C)CCC1 [3-hydroxyequinenone],0.02 or less mg/kg
2,CC1=C(/C=C/C(C)=C/C=C/C(C)=C/C=C/C=C(C)/C=C/C=C(C)/C=C/C2=C(C)C(=O)CCC2(C)C)C(C)(C)CCC1 [Equinenone],0.02 or less mg/kg

# Same assay, conditions: Synthetic product division, rainbow trout, 3 months, average of 12 fish
row,Compound,Content in fish flesh
1,CC1=C(/C=C/C(C)=C/C=C/C(C)=C/C=C/C=C(C)/C=C/C=C(C)/C=C/C2=C(C)C(=O)[C@@H](O)CC2(C)C)C(C)(C)CCC1 [3-hydroxyequinenone],0.02 or less mg/kg
2,CC1=C(/C=C/C(C)=C/C=C/C(C)=C/C=C/C=C(C)/C=C/C=C(C)/C=C/C2=C(C)C(=O)CCC2(C)C)C(C)(C)CCC1 [Equinenone],0.02 or less mg/kg

# Experiment: Carotenoid content in fish flesh of king salmon by HPLC
# Assay type: in vivo, Oncorhynchus tshawytscha
# Conditions: Fermented product division, king salmon fish flesh, 3 months
# Method: In the examples, the quantification of the carotenoid colorant was performed using high performance liquid chromatography (HPLC). Two columns of Wakosil-II 5 SIL-100 φ4.6×250 mm (produced by Wako Pure Chemical Industries, Ltd.) were connected to each other. An n-hexane:tetrahydrofuran:methanol (40:20:1) mixed solution was used as a mobile phase. A constant room temperature and a flow rate of 1.0 ml/min were used. The detection was performed at a wavelength of 470 nm. The feed or fish flesh was milled, and then the colorant was extracted with a tetrahydrofuran:methanol (20:1) mixed solution. The colorant was appropriately diluted with the mobile phase and analyzed by HPLC. 100 king salmons (Oncorhynchus tshawytscha) each weighing about 200 g were cultivated as a test division of being fed with the above-described fermented product, and another 100 king salmons each weighing about 200 g were cultivated as a test division of being fed with the above-described synthetic product. The salmons were fed in satiation in a marine fish pen for 3 months. After the 3 months of cultivating, 15 fish of each test division were sampled and weighed. […] The fish were immediately killed by cutting medulla. […] After the measurement, the fish flesh was frozen for preservation for 1 month. After being thawed, the fish flesh of the fish of each test division was analyzed in terms of the content of each carotenoid compound.
row,Compound,Ratio to astaxanthin
1,CC1=C(/C=C/C(C)=C/C=C/C(C)=C/C=C/C=C(C)/C=C/C=C(C)/C=C/C2=C(C)C(=O)[C@@H](O)CC2(C)C)C(C)(C)CCC1 [3-hydroxyequinenone],0.5 or less %
2,CC1=C(/C=C/C(C)=C/C=C/C(C)=C/C=C/C=C(C)/C=C/C=C(C)/C=C/C2=C(C)C(=O)CCC2(C)C)C(C)(C)CCC1 [Equinenone],0.5 or less %

# Same assay, conditions: Fermented product division, king salmon, 3 months, flesh frozen 1 month, average of 15 fish
row,Compound,Content in fish flesh
1,CC1=C(/C=C/C(C)=C/C=C/C(C)=C/C=C/C=C(C)/C=C/C=C(C)/C=C/C2=C(C)C(=O)[C@@H](O)CC2(C)C)C(C)(C)CCC1 [3-hydroxyequinenone],0.02 or less mg/kg
2,CC1=C(/C=C/C(C)=C/C=C/C(C)=C/C=C/C=C(C)/C=C/C=C(C)/C=C/C2=C(C)C(=O)CCC2(C)C)C(C)(C)CCC1 [Equinenone],0.02 or less mg/kg

# Same assay, conditions: Synthetic product division, king salmon, 3 months, flesh frozen 1 month, average of 15 fish
row,Compound,Content in fish flesh
1,CC1=C(/C=C/C(C)=C/C=C/C(C)=C/C=C/C=C(C)/C=C/C=C(C)/C=C/C2=C(C)C(=O)[C@@H](O)CC2(C)C)C(C)(C)CCC1 [3-hydroxyequinenone],0.02 or less mg/kg
2,CC1=C(/C=C/C(C)=C/C=C/C(C)=C/C=C/C=C(C)/C=C/C=C(C)/C=C/C2=C(C)C(=O)CCC2(C)C)C(C)(C)CCC1 [Equinenone],0.02 or less mg/kg

# Experiment: Carotenoid content in fish flesh of Atlantic salmon by HPLC
# Assay type: in vivo, Salmo salar
# Conditions: Fermented product division, Atlantic salmon fish flesh, 12 months
# Method: In the examples, the quantification of the carotenoid colorant was performed using high performance liquid chromatography (HPLC). Two columns of Wakosil-II 5 SIL-100 φ4.6×250 mm (produced by Wako Pure Chemical Industries, Ltd.) were connected to each other. An n-hexane:tetrahydrofuran:methanol (40:20:1) mixed solution was used as a mobile phase. A constant room temperature and a flow rate of 1.0 ml/min were used. The detection was performed at a wavelength of 470 nm. The feed or fish flesh was milled, and then the colorant was extracted with a tetrahydrofuran:methanol (20:1) mixed solution. The colorant was appropriately diluted with the mobile phase and analyzed by HPLC. 400 Atlantic salmons (Salmo salar) each weighing about 300 g were cultivated as a test division of being fed with the above-described fermented product, and another 400 Atlantic salmons each weighing about 300 g were cultivated as a test division of being fed with the above-described synthetic product. The salmons were fed in satiation in a marine fish pen for 12 months. After the 12 months of cultivating, 20 fish of each test division were landed and weighed. […] The fish were immediately killed by cutting medulla, and the fish flesh was measured in terms of the color tone by a spectrometer. […] After the measurement, the fish flesh was frozen for preservation for 1 month. After being thawed, the fish flesh of the 20 fish of each test division was analyzed in terms of the content of each carotenoid compound.
row,Compound,Ratio to astaxanthin
1,CC1=C(/C=C/C(C)=C/C=C/C(C)=C/C=C/C=C(C)/C=C/C=C(C)/C=C/C2=C(C)C(=O)[C@@H](O)CC2(C)C)C(C)(C)CCC1 [3-hydroxyequinenone],0.5 or less %
2,CC1=C(/C=C/C(C)=C/C=C/C(C)=C/C=C/C=C(C)/C=C/C=C(C)/C=C/C2=C(C)C(=O)CCC2(C)C)C(C)(C)CCC1 [Equinenone],0.5 or less %

# Same assay, conditions: Fermented product division, Atlantic salmon, 12 months, flesh frozen 1 month, average of 20 fish
row,Compound,Content in fish flesh
1,CC1=C(/C=C/C(C)=C/C=C/C(C)=C/C=C/C=C(C)/C=C/C=C(C)/C=C/C2=C(C)C(=O)[C@@H](O)CC2(C)C)C(C)(C)CCC1 [3-hydroxyequinenone],0.02 or less mg/kg
2,CC1=C(/C=C/C(C)=C/C=C/C(C)=C/C=C/C=C(C)/C=C/C=C(C)/C=C/C2=C(C)C(=O)CCC2(C)C)C(C)(C)CCC1 [Equinenone],0.02 or less mg/kg

# Same assay, conditions: Synthetic product division, Atlantic salmon, 12 months, flesh frozen 1 month, average of 20 fish
row,Compound,Content in fish flesh
1,CC1=C(/C=C/C(C)=C/C=C/C(C)=C/C=C/C=C(C)/C=C/C=C(C)/C=C/C2=C(C)C(=O)[C@@H](O)CC2(C)C)C(C)(C)CCC1 [3-hydroxyequinenone],0.02 or less mg/kg
2,CC1=C(/C=C/C(C)=C/C=C/C(C)=C/C=C/C=C(C)/C=C/C=C(C)/C=C/C2=C(C)C(=O)CCC2(C)C)C(C)(C)CCC1 [Equinenone],0.02 or less mg/kg

# From patent US8999664B2, “Method of improving salmon meat color” (JX Nippon Oil & Energy Corporation, priority 2006, dated 2015)
